Biological target: GPR174-v38 (Homo sapiens, UniProt Q9BXC1)
Test: Inhibition of PS-induced GPR174 Gs signaling (GloSensor), HEK293 stably transfected with GPR174-v38
Type: cell-based
Conditions: PS liposomes 1 μM; for IC50: GPR174-v38 (compound 59: data not shown), read-out: apparent IC50, inhibition of PS-induced GPR174 Gs signaling

| Structure (SMILES) | PS-mediated GPR174 Gs signaling (FIGS. 47B-47F) | IC50 |
| --- | --- | --- |
| O=C(c1ccccc1)N1CCN(c2cc(N3CCCCC3)c(F)cc2[N+](=O)[O-])CC1 [compound 6] | inhibited | ~0.1 µM |
| O=[N+]([O-])c1cc(F)c(N2CCCCC2)cc1N1CCN(S(=O)(=O)c2ccccc2)CC1 [compound 11] | inhibited | ~0.1 µM |
| Cc1ccccc1Nc1nnc(-c2ccc(C)c(S(N)(=O)=O)c2)c2ccccc12 [compound 20] | inhibited | ~3 µM |
| CCOc1ccc(C2C3=C(CCCC3=O)NC3=C2C(=O)c2ccccc23)cc1 (centres unmarked) [compound 23] | inhibited | ~0.15 µM |
| CCOc1ccc(C2C3=C(CCCC3=O)NC3=C2C(=O)c2ccccc23)cc1OCC (centres unmarked) [compound 30] | inhibited | ~1.3 µM |
| S=C(NCc1ccco1)Nc1ccc(I)cc1 [compound 59] | – | ~10 µM |
